Experimental findings from ChEMBL document CHEMBL1129179, “Antimicrobial evaluation of 3,1-benzoxazin-4-ones, 3,1-benzothiazin-4-ones, 4-alkoxyquinazolin-2-carbonitriles and N-arylimino-1,2,3-dithiazoles” (1996) are described below.

Assay type in all cases: functional
The test system of assay [1] is Nakaseomyces glabratus. In words: Minimum inhibitory concentration required for antifungal activity against Candida glabrata DSM 6425 strain.
The subject of assay [2] is Candida albicans. In words: Minimum fungicidal concentration required for antifungal activity against Candida albicans ATCC 10231 strain.
Assay [3] deals with Nakaseomyces glabratus. The assay is described as follows: Minimum fungicidal concentration required for antifungal activity against Candida glabrata DSM 6425 strain.
Assay [4] relates to Candida tropicalis. In words: Minimum fungicidal concentration required for antifungal activity against Candida tropicalis DSM 1346 strain.
The test system of assay [5] is Candida tropicalis. The assay is described as follows: Minimum inhibitory concentration required for antifungal activity against Candida tropicalis DSM 1346 strain.
Assay [6] has as its system Cryptococcus neoformans. The assay is described as follows: Minimum inhibitory concentration required for antifungal activity against Cryptococcus neoformans DSM 70219 strain.
Assay [7] concerns Candida albicans. In words: Minimum inhibitory concentration required for antifungal activity against Candida albicans ATCC 10231 strain.
Assay [8] concerns Cryptococcus neoformans. The assay is described as follows: Minimum fungicidal concentration required for antifungal activity against Cryptococcus neoformans DSM 70219 strain.
The subject of assay [9] is Pichia kudriavzevii. The assay is described as follows: Minimum fungicidal concentration required for antifungal activity against Issatchenkia orientalis DSM 6128 strain.
Assay [10] relates to Pichia kudriavzevii. In words: Minimum inhibitory concentration required for antifungal activity against Issatchenkia orientalis DSM 6128 strain.
Assay [11] can be described thus: Ratio of MFC99/MIC for antifungal activity against Candida albicans ATCC 10231 strain was determined.
Assay [12] in a line: Ratio of MFC99/MIC for antifungal activity against Candida glabrata DSM 6425 strain was determined.
A short description of assay [13]: Ratio of MFC99/MIC for antifungal activity against Candida tropicalis DSM 1346 strain was determined.
Assay [14] is described as follows: Ratio of MFC99/MIC for antifungal activity against Cryptococcus neoformans DSM 70219 strain was determined.
The nature of assay [15]: Ratio of MFC99/MIC for antifungal activity against Issatchenkia orientalis DSM 6128 strain was determined.

In brackets after ≈: the same amount, converted by molar mass.

What is called MIC is the lowest concentration that inhibits growth of the organism. Read a low MIC as greater potency. `COc1ccccc1/N=c1\ssnc1Cl`: the minimal inhibitory concentration (MIC) is 16 µg/mL (≈ 61.8 µM) in the assay with Nakaseomyces glabratus [1]; 16 µg/mL (≈ 61.8 µM) against Candida tropicalis [5]; 8 µg/mL (≈ 30.9 µM) in the assay on Cryptococcus neoformans [6]; 16 µg/mL (≈ 61.8 µM) against Candida albicans [7]; 16 µg/mL (≈ 61.8 µM) against Pichia kudriavzevii [10]. Moreover, the MFC99 in the assay on Candida albicans [2], in the assay on Nakaseomyces glabratus [3], with Candida tropicalis [4], against Cryptococcus neoformans [8] and against Pichia kudriavzevii [9] was 16 µg/mL (≈ 61.8 µM) throughout. The Ratio was 1 in [11]; 1 in [12]; 1 in [13]; 2 in assay [14]; 1 in [15].
`OC(Cn1cncn1)(Cn1cncn1)c1ccc(F)cc1F` [FLUCONAZOLE]: the minimal inhibitory concentration (MIC) against Nakaseomyces glabratus [1] stood at 4 µg/mL (≈ 13.1 µM); in the assay with Candida tropicalis [5] it was 4 µg/mL (≈ 13.1 µM); against Cryptococcus neoformans [6], 4 µg/mL (≈ 13.1 µM); in the assay on Candida albicans [7] it was 2 µg/mL (≈ 6.53 µM); with Pichia kudriavzevii [10] it was 16 µg/mL (≈ 52.2 µM). Further, the MFC99 in the assay on Candida albicans [2] was greater than 128 µg/mL; against Nakaseomyces glabratus [3], greater than 128 µg/mL; in the assay with Candida tropicalis [4] it was greater than 128 µg/mL; in the assay on Cryptococcus neoformans [8] it was greater than 128 µg/mL; with Pichia kudriavzevii [9], 64 µg/mL (≈ 209 µM). Besides, the Ratio in [11] was greater than 64; in [12], greater than 32; in [13], greater than 32; in assay [14], greater than 32; in assay [15] it was 4.
Turning to `COC(=O)c1ccccc1/N=c1\ssnc1Cl`, the minimal inhibitory concentration (MIC) with Nakaseomyces glabratus [1] is 16 µg/mL (≈ 55.8 µM); with Candida tropicalis [5], 16 µg/mL (≈ 55.8 µM); against Cryptococcus neoformans [6], 32 µg/mL (≈ 112 µM); in the assay with Candida albicans [7], 16 µg/mL (≈ 55.8 µM); with Pichia kudriavzevii [10] it was 16 µg/mL (≈ 55.8 µM). Also, the MFC99 against Candida albicans [2] was 16 µg/mL (≈ 55.8 µM); in the assay with Nakaseomyces glabratus [3], 32 µg/mL (≈ 112 µM); with Candida tropicalis [4] it was 16 µg/mL (≈ 55.8 µM); against Cryptococcus neoformans [8], 32 µg/mL (≈ 112 µM); against Pichia kudriavzevii [9], 32 µg/mL (≈ 112 µM). The Ratio in assay [11] is recorded as 1; in [12], 2; in [13], 1; in [14], 1; in [15], 2.
With `N#Cc1ccccc1/N=c1\ssnc1Cl`, the MIC with Nakaseomyces glabratus [1], against Candida tropicalis [5], against Cryptococcus neoformans [6], in the assay on Candida albicans [7] and against Pichia kudriavzevii [10] was 16 µg/mL (≈ 63.1 µM) each time. Besides, the MFC99 with Candida albicans [2], in the assay with Nakaseomyces glabratus [3], against Candida tropicalis [4], with Cryptococcus neoformans [8] and against Pichia kudriavzevii [9] was 16 µg/mL (≈ 63.1 µM) in each case. Moreover, the Ratio in [11], in assay [12], in assay [13], in [14] and in assay [15] was 1 each time.
